# Reference: patent US9513294B2, “Megastokes amino-triazolyl-BODIPY compounds and applications to live neuron staining and human serum albumin FA1 drug site probing” (National University of Singapore, priority 2012, dated 2016)
# Experiments:
# [1] = Quantum yield measurements versus Acridine Yellow in EtOH; assay type: physicochemical; details: for φ (quantum yield): excitation 460 nm; for φ (%): quantum yield
# Outline: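 Fluorescence quantum yield is relative to Acridine Yellow in EtOH (Φ 0.47), with excitation at 460 nm. Integrated emission at 510–700 nm was corrected for absorbance at the excitation wavelength and for solvent refractive index.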
# [2] = Absorbance and fluorescence emission spectra (SpectraMax M2); assay type: physicochemical; details: for λmax Abs. (nm) / λmax Em. (nm): MKAC compound library; for λmax Abs. (nm) / λmax Absorp. (nm): absorbance maximum; for λmax Em. (nm) / λmax Emission (nm): fluorescence emission maximum; for λmax Absorp. (nm) / λmax Emission (nm): MKCA compound library
# Outline: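 Absorbance and emission maxima measured on a SpectraMax M2 spectrophotometer, which also gave quantum yield data; analysis in GraphPrism.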
compound,measurement,setting,value
CCCCCCc1cn(-c2ccc3n2[B-](F)(F)[N+]2=C(N4CCCCC4)C=CC2=C3c2ccc(NC(C)=O)cc2)nn1 [BDCAC-47],φ (quantum yield),"[1]; BDCAC library, Table 3",1.4%
same,λmax Absorp.,"[2]; BDCAC library, Table 3",467 nm
same,λmax Emission,"[2]; BDCAC library, Table 3",562 nm
CC(=O)Nc1ccc(C2=C3C=CC(N(C)Cc4ccccc4)=[N+]3[B-](F)(F)n3c2ccc3-n2cc(C3CC3)nn2)cc1 [MKAC195-4],φ (%),[1]; MKAC compound library,5.45%
same,λmax Abs. (nm),[2],466 nm
same,λmax Em. (nm),[2],582 nm
O=C(CCl)Nc1ccc(C2=C3C=CC(N4CCCCC4)=[N+]3[B-](F)(F)n3c2ccc3-n2cc(COc3ccccc3)nn2)cc1 [BDCCA-17],φ (quantum yield),"[1]; BDCCA library, Table 4",0.7%
same,λmax Absorp.,"[2]; BDCCA library, Table 4",464 nm
same,λmax Emission,"[2]; BDCCA library, Table 4",584 nm
CC1CN(C2=[N+]3C(=C(c4ccc(NC(=O)CCl)cc4)c4ccc(-n5cc(CO)nn5)n4[B-]3(F)F)C=C2)CC(C)O1 (stereo not drawn) [MKCA20-70],φ (%),[1]; MKCA compound library,2.64%
same,λmax Absorp. (nm),[2],469 nm
same,λmax Emission (nm),[2],587 nm
CCCCCC(O)c1cn(-c2ccc3n2[B-](F)(F)[N+]2=C(N4CCCCC4)C=CC2=C3c2ccc(N)cc2)nn1 (stereo not drawn) [BDC-69],φ (quantum yield),"[1]; BDC library, Table 2",0.13%
same,λmax Absorp.,"[2]; BDC library, Table 2",476 nm
same,λmax Emission,"[2]; BDC library, Table 2",586 nm
CC(C)Cc1cn(-c2ccc3n2[B-](F)(F)[N+]2=C(N4CCCC4)C=CC2=C3c2ccc(NC(=O)CCl)cc2)nn1 [MKCA215-43],φ (%),[1]; MKCA compound library,4.04%
same,λmax Absorp. (nm),[2],461 nm
same,λmax Emission (nm),[2],570 nm
CCCCCC(O)c1cn(-c2ccc3n2[B-](F)(F)[N+]2=C(NCc4cc(OC)ccc4OC)C=CC2=C3c2ccc(NC(=O)CCl)cc2)nn1 (stereo not drawn) [MKCA181-69],φ (%),[1]; MKCA compound library,14.25%
same,λmax Absorp. (nm),[2],465 nm
same,λmax Emission (nm),[2],558 nm
CC(=O)Nc1ccc(C2=C3C=CC(N(C)Cc4ccccc4)=[N+]3[B-](F)(F)n3c2ccc3-n2cc(CN(C)Cc3ccccc3)nn2)cc1 [MKAC195-18],φ (%),[1]; MKAC compound library,1.85%
same,λmax Abs. (nm),[2],465 nm
same,λmax Em. (nm),[2],575 nm
CCCCCc1ccc(-c2cn(-c3ccc4n3[B-](F)(F)[N+]3=C(N5CCCCC5)C=CC3=C4c3ccc(NC(=O)CCl)cc3)nn2)cc1 [BDCCA-29],φ (quantum yield),"[1]; BDCCA library, Table 4",1.7%
same,λmax Absorp.,"[2]; BDCCA library, Table 4",464 nm
same,λmax Emission,"[2]; BDCCA library, Table 4",548 nm
CC(=O)Nc1ccc(C2=C3C=CC(N4CC(C)OC(C)C4)=[N+]3[B-](F)(F)n3c2ccc3-n2cc(C3CCCC3)nn2)cc1 (stereo not drawn) [MKAC20-5],φ (%),[1]; MKAC compound library,3.47%
same,λmax Abs. (nm),[2],467 nm
same,λmax Em. (nm),[2],580 nm
COc1ccc(OC)c(CNC2=[N+]3C(=C(c4ccc(N)cc4)c4ccc(-n5cc(C6CC6)nn5)n4[B-]3(F)F)C=C2)c1 [MK181-4],φ (quantum yield),"[1]; MK library, Table 5",0.28%
same,λmax Absorp.,"[2]; MK library, Table 5",474 nm
same,λmax Emission,"[2]; MK library, Table 5",566 nm
CCOc1ccccc1CNC1=[N+]2C(=C(c3ccc(NC(C)=O)cc3)c3ccc(-n4cc(CC5CCCCC5)nn4)n3[B-]2(F)F)C=C1 [MKAC103-8],φ (%),[1]; MKAC compound library,25.32%
same,λmax Abs. (nm),[2],465 nm
same,λmax Em. (nm),[2],562 nm
CC1CN(C2=[N+]3C(=C(c4ccc(N)cc4)c4ccc(-n5cc(C6CC6)nn5)n4[B-]3(F)F)C=C2)CC(C)O1 (stereo not drawn) [MK20-4],φ (quantum yield),"[1]; MK library, Table 5",0.50%
same,λmax Absorp.,"[2]; MK library, Table 5",476 nm
same,λmax Emission,"[2]; MK library, Table 5",564 nm
CC(=O)Nc1ccc(C2=C3C=CC(N4CCCCC4)=[N+]3[B-](F)(F)n3c2ccc3-n2cc(-c3cccc(C)c3)nn2)cc1 [BDCAC-45],φ (quantum yield),"[1]; BDCAC library, Table 3",3.2%
same,λmax Absorp.,"[2]; BDCAC library, Table 3",463 nm
same,λmax Emission,"[2]; BDCAC library, Table 3",551 nm
CCCCCC(O)c1cn(-c2ccc3n2[B-](F)(F)[N+]2=C(NCc4ccccc4C)C=CC2=C3c2ccc(NC(=O)CCl)cc2)nn1 (stereo not drawn) [MKCA101-69],φ (%),[1]; MKCA compound library,21.93%
same,λmax Absorp. (nm),[2],466 nm
same,λmax Emission (nm),[2],562 nm
Nc1ccc(C2=C3C=CC(N4CCCCC4)=[N+]3[B-](F)(F)n3c2ccc3-n2cc(-c3ccc(F)c(F)c3)nn2)cc1 [BDC-16],φ (quantum yield),"[1]; BDC library, Table 2",0.18%
same,λmax Absorp.,"[2]; BDC library, Table 2",471 nm
same,λmax Emission,"[2]; BDC library, Table 2",585 nm
CCCc1cn(-c2ccc3n2[B-](F)(F)[N+]2=C(N4CCCC4)C=CC2=C3c2ccc(N)cc2)nn1 [MK215-48],φ (quantum yield),"[1]; MK library, Table 5",0.29%
same,λmax Absorp.,"[2]; MK library, Table 5",470 nm
same,λmax Emission,"[2]; MK library, Table 5",575 nm
CC(=O)Nc1ccc(C2=C3C=CC(N4CCCCC4)=[N+]3[B-](F)(F)n3c2ccc3-n2cc(-c3ccc(-c4ccccc4)cc3)nn2)cc1 [BDCAC-23],φ (quantum yield),"[1]; BDCAC library, Table 3",1.3%
same,λmax Absorp.,"[2]; BDCAC library, Table 3",465 nm
same,λmax Emission,"[2]; BDCAC library, Table 3",574 nm
CCCCCC(O)c1cn(-c2ccc3n2[B-](F)(F)[N+]2=C(N4CCc5ccccc5C4)C=CC2=C3c2ccc(N)cc2)nn1 (stereo not drawn) [MK66-69],φ (quantum yield),"[1]; MK library, Table 5",0.14%
same,λmax Absorp.,"[2]; MK library, Table 5",480 nm
same,λmax Emission,"[2]; MK library, Table 5",583 nm
CCCC(C)c1cn(-c2ccc3n2[B-](F)(F)[N+]2=C(NCc4cc(OC)ccc4OC)C=CC2=C3c2ccc(N)cc2)nn1 (stereo not drawn) [MK181-3],φ (quantum yield),"[1]; MK library, Table 5",0.36%
same,λmax Absorp.,"[2]; MK library, Table 5",473 nm
same,λmax Emission,"[2]; MK library, Table 5",565 nm
Cc1ccccc1CNC1=[N+]2C(=C(c3ccc(NC(=O)CCl)cc3)c3ccc(-n4cc(C5CC5)nn4)n3[B-]2(F)F)C=C1 [MKCA101-4],φ (%),[1]; MKCA compound library,34.56%
same,λmax Absorp. (nm),[2],464 nm
same,λmax Emission (nm),[2],565 nm
CCOc1ccccc1CNC1=[N+]2C(=C(c3ccc(NC(C)=O)cc3)c3ccc(-n4cc(C5CC5)nn4)n3[B-]2(F)F)C=C1 [MKAC103-4],φ (%),[1]; MKAC compound library,24.86%
same,λmax Abs. (nm),[2],464 nm
same,λmax Em. (nm),[2],565 nm
O=C(CCl)Nc1ccc(C2=C3C=CC(NCc4cc(F)cc(F)c4)=[N+]3[B-](F)(F)n3c2ccc3-n2cc(CCc3ccccc3)nn2)cc1 [MKCA412-19],φ (%),[1]; MKCA compound library,42.58%
same,λmax Absorp. (nm),[2],466 nm
same,λmax Emission (nm),[2],563 nm
CN(Cc1ccccc1)C1=[N+]2C(=C(c3ccc(NC(=O)CCl)cc3)c3ccc(-n4cc(C5CC5)nn4)n3[B-]2(F)F)C=C1 [MKCA195-4],φ (%),[1]; MKCA compound library,7.26%
same,λmax Absorp. (nm),[2],466 nm
same,λmax Emission (nm),[2],575 nm
Nc1ccc(C2=C3C=CC(N4CCCCC4)=[N+]3[B-](F)(F)n3c2ccc3-n2cc(C3CCCCC3)nn2)cc1 [BDC-6],φ (quantum yield),"[1]; BDC library, Table 2",0.24%
same,λmax Absorp.,"[2]; BDC library, Table 2",473 nm
same,λmax Emission,"[2]; BDC library, Table 2",582 nm
CCCC(C)c1cn(-c2ccc3n2[B-](F)(F)[N+]2=C(NCc4ccccc4OCC)C=CC2=C3c2ccc(N)cc2)nn1 (stereo not drawn) [MK103-3],φ (quantum yield),"[1]; MK library, Table 5",1.71%
same,λmax Absorp.,"[2]; MK library, Table 5",474 nm
same,λmax Emission,"[2]; MK library, Table 5",564 nm
O=C(CCl)Nc1ccc(C2=C3C=CC(N4CCCCC4)=[N+]3[B-](F)(F)n3c2ccc3-n2cc(CCc3ccccc3)nn2)cc1 [BDCCA-19],φ (quantum yield),"[1]; BDCCA library, Table 4",1.0%
same,λmax Absorp.,"[2]; BDCCA library, Table 4",466 nm
same,λmax Emission,"[2]; BDCCA library, Table 4",578 nm
CCCC(C)c1cn(-c2ccc3n2[B-](F)(F)[N+]2=C(NCc4cc(F)cc(F)c4)C=CC2=C3c2ccc(NC(C)=O)cc2)nn1 (stereo not drawn) [MKAC412-3],φ (%),[1]; MKAC compound library,27.73%
same,λmax Abs. (nm),[2],466 nm
same,λmax Em. (nm),[2],561 nm
CCCCc1ccc(-c2cn(-c3ccc4n3[B-](F)(F)[N+]3=C(N5CCCCC5)C=CC3=C4c3ccc(NC(C)=O)cc3)nn2)cc1 [BDCAC-12],φ (quantum yield),"[1]; BDCAC library, Table 3",1.6%
same,λmax Absorp.,"[2]; BDCAC library, Table 3",464 nm
same,λmax Emission,"[2]; BDCAC library, Table 3",558 nm
CCCC(C)c1cn(-c2ccc3n2[B-](F)(F)[N+]2=C(N4CC(C)OC(C)C4)C=CC2=C3c2ccc(N)cc2)nn1 (stereo not drawn) [MK20-3],φ (quantum yield),"[1]; MK library, Table 5",0.10%
same,λmax Absorp.,"[2]; MK library, Table 5",476 nm
same,λmax Emission,"[2]; MK library, Table 5",573 nm
CC(C)Cc1cn(-c2ccc3n2[B-](F)(F)[N+]2=C(N4CCCCC4)C=CC2=C3c2ccc(NC(=O)CCl)cc2)nn1 [BDCCA-43],φ (quantum yield),"[1]; BDCCA library, Table 4",0.8%
same,λmax Absorp.,"[2]; BDCCA library, Table 4",466 nm
same,λmax Emission,"[2]; BDCCA library, Table 4",583 nm
